# Results reported in patent US20260008783A1, “MODULATORS OF FSHR AND USES THEREOF” (Celmatix Inc., priority 2022, published 2026).
# pIC50: −log10 of the molar value.
# Biological target: T1, Follicle Stimulating Hormone Receptor (FSHR) (Homo sapiens, UniProt P23945)
# T1 construct: HA (N); expressed in transfected cells; host or cells: CHO-K1, transient transfection, pHM6 vector (CMV promoter)
# T1 sequence (P23945 18-695): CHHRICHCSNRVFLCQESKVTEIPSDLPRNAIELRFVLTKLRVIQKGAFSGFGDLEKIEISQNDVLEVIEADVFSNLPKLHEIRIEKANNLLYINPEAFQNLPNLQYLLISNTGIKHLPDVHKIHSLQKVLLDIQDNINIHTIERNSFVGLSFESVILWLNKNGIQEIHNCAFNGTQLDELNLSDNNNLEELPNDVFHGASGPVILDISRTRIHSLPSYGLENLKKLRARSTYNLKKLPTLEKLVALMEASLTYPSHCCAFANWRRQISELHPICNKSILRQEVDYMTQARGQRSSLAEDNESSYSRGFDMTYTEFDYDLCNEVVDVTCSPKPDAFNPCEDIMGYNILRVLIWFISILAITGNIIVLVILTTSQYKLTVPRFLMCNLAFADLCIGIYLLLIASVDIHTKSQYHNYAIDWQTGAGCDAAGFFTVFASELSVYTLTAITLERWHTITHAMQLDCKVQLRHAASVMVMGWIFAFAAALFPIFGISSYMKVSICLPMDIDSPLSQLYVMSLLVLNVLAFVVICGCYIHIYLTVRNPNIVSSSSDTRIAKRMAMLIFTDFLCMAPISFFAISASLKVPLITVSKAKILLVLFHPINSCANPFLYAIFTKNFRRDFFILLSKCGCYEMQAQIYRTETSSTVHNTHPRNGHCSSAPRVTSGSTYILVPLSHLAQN
# Assay: HTRF cAMP agonist assay, FSHR, transiently transfected CHO-K1 cells
# Type: cell-based
# Conditions: CHO-K1 cells transiently expressing human FSHR, read-out: IC50 FSHR LANCE CAMP
# Excerpt: Example 17. HTRF cAMP Agonist Assay Protocol (for FSHR, TSHR, LHCGR)
# Mammalian expression vectors designed to express either Follicle Stimulating Hormone Receptor (FSHR), Thyroid Stimulating Hormone Receptor (TSHR), or Luteinizing Hormone/Choriogonadotropin Receptor (LHCGR), were generated with an HA-tag on the N-terminus. All constructs were expressed under a human cytomegalovirus (CMV) immediate early enhancer and promoter using the pHM6 expression vector. The protein coding region was confirmed by sequence analysis to be in-frame and of the expected sequence, matching the following accession numbers: FSHR NM_000145, TSHR NM_000369, and LHCGR NM_000233.
# HTRF cAMP assays were performed using Chinese Hamster Ovary (CHO-K1) cell lines transiently expressing human FSH, TSH, and LHCG receptors. 48 hours before the assay, cells were washed with PBS and then dissociated from tissue culture flasks with 0.25% trypsin. Dissociated cells were quenched in full media (F-12K Medium Corning REF #10-025-CV, 10% Avantor Seradigm FB Essence Cat #10803-034, 1% Penicillin/Streptomycin Cytiva HyClone Cat #SV30010) and then collected by centrifugation at 290×g for 5 min. Cells were resuspended in full media and dispensed into 150 mm cell culture dishes (Nest Scientific Cat #715001), at 2.3×10^6 cells/flask. 7 hours later, cells were transfected using Lipofectamine transfection reagent (Invitrogen Cat #18324020). Briefly, 60 μL of lipofectamine was dispensed into 2 mL of Opti-MEM (Gibco Cat #31985070) and incubated for 5 minutes at room temperature. Then, the mixture was added onto […] of DNA and incubated for another 20 minutes at room temperature. Cells were washed with warm (37° C.) PBS. 17.5 mL of Opti-MEM was dispensed onto the cells, followed by addition of the Opti-MEM/lipofectamine/DNA mixture. Cells were incubated overnight in a 37° C., 5% CO2 cell incubator. 17-19 hours later, Opti-MEM was aspirated off the cells and replaced with full media. Cells were incubated for another 24 hours in a 37° C., 5% CO2 cell incubator.
# On the day of the assay, cells were washed with PBS and then dissociated from tissue culture flasks with 0.25% trypsin. Dissociated cells were quenched in full media and then collected by centrifugation at 290×g for 5 min. Cells were resuspended in PBS^+/+ (Corning REF #20-030-CV) to a concentration of 2×10^5 cells/mL. 10 μL/well of cells (2,000 cells/well) were dispensed into 384-well Corning plates (REF #3825), in triplicate. Cells were incubated at room temperature for 2 hours.
# Example FSHR Modulator compounds were diluted in assay buffer (PBS^+/+, 0.05% BSA Sigma-Aldrich A3059, 500 μM IBMX Sigma-Aldrich 15879) to 3.5× the final assay concentration. 4 μL of test agonist was added to the cells and incubated for 1 hour at room temperature. 10 μL of cAMP detection reagents (LANCE Ultra cAMP Detection Kit PerkinElmer TRF0264) were dispensed onto the cells and plates were incubated for 2 hours at room temperature (cAMP detection reagents were made according to the PerkinElmer kit protocol). Plates were read on an Envision plate reader following PerkinElmer guidelines.
# Raw data for all assays was transmitted directly from plate readers into a database for processing. All assay plates contained both positive and negative control wells to allow for data normalization and scaling. In agonist assays, negative control wells contained assay buffer and positive control wells contained […] positive control (10 nM Follicle Stimulating Hormone Sigma-Aldrich F4021, 50 nM Thyroid Stimulating Hormone Sigma-Aldrich 869006, 50 nM Luteinizing Hormone MyBioSource MBS5308806, for their respective receptors). All control wells contained DMSO at a final assay concentration that matched the test compound wells. […]
# Percent control data were analyzed by non-linear regression with a sigmoidal dose response algorithm in the database to yield potency and efficacy data.
row,Compound,pIC50
1,COc1cc2c(cc1-c1cncc(C(N)=O)c1)-c1c(c(C(=O)N3[C@@H]4CC[C@H]3CN(C)C4)nn1-c1cc(Cl)cc(Cl)c1)CC2 [Compound 8-18],7.75
2,COc1cc2c(cc1-c1cncc(C(N)=O)c1)-c1c(c(C(=O)N3CCNC(=O)C3(C)C)nn1-c1cc(Cl)cc(Cl)c1)SC2 [Compound 12-16],7.68
3,COc1cc2c(cc1-c1cncc(C(N)=O)c1)-c1c(c(C(=O)N3CCC(O)C3(C)C)nn1-c1cc(Cl)cc(Cl)c1)CC2 (stereo not drawn) [Compound 8-90A],8.67
4,COc1cc2c(cc1-c1cncc(C(N)=O)c1)-c1c(c(C(=O)N3CCOCC3(C)C)nn1-c1cnccn1)CC2 [Compound 10-06],7.17
5,"COc1cc2c(cc1Br)-c1c(c(C(=O)N3CCOCC3(C)C)nn1-c1cc(Cl)cc(Cl)c1)CC2 [Compound 6-01A, [8-bromo-1-(3,5-dichlorophenyl)-7-methoxy-4,5-dihydrobenzo[g]indazol-3-yl]-(3,3-dimethylmorpholin-4-yl)methanone]",5.96
6,"COc1cc2c(cc1-c1cncc(C(N)=O)c1)-c1c(c(C(=O)N3CCOCC3(C)C)nn1-c1ccsc1)CC2 [Compound 9-21, 5-[3-(3,3-dimethylmorpholine-4-carbonyl)-7-methoxy-1-(3-thienyl)-4,5-dihydrobenzo[g]indazol-8-yl]pyridine-3-carboxamide]",8.89
7,"COc1cc2c(cc1-c1cncc(C(N)=O)c1)-c1c(c(C(=O)N3CCNC(=O)C3(C)C)nn1-c1ccccn1)CC2 [Compound 15-01, 5-[3-(2,2-dimethyl-3-oxo-piperazine-1-carbonyl)-7-methoxy-1-(2-pyridyl)-4,5-dihydrobenzo[g]indazol-8-yl]pyridine-3-carboxamide]",7.12
8,CCC1C(=O)NCCN1C(=O)c1nn(-c2cc(Cl)cc(Cl)c2)c2c1CCc1cc(OC)c(-c3cncc(C(N)=O)c3)cc1-2 (stereo not drawn) [Compound 8-84],7.49
9,"COc1cc2ccc3c(C(=O)N(C)C(C)(C)C)nn(-c4cc(Cl)cc(Cl)c4)c3c2cc1-c1cncc(C(N)=O)c1 [Compound 6-06, N-tert-butyl-8-(5-carbamoyl-3-pyridyl)-1-(3,5-dichlorophenyl)-7-methoxy-N-methyl-benzo[g]indazole-3-carboxamide]",7.87
10,COc1cc2c(cc1-c1cccnc1)-c1c(c(C(=O)N3CCOCC3(C)C)nn1-c1cc(Cl)cc(Cl)c1)CC2 [Compound 9-07],8.22
11,COc1cc2c(cc1-c1cncc(C(N)=O)c1)-c1c(c(C(=O)N3CCOCC3(C)C)nn1CC(C)C)CC2 [Compound 9-14],7.85
12,COc1cc2c(cc1-c1ccc(=N)[nH]c1)-c1c(c(C(=O)N3CCOCC3(C)C)nn1-c1cc(F)cc(F)c1)CC2 [Compound 15-10],7.67
13,"COc1cc2c(cc1-c1cncc(C(N)=O)c1)-c1c(c(C(=O)N(C)C(C)(C)C)nn1-c1ccsc1)C2 [Compound 5-04, N-tert-butyl-7-(5-carbamoyl-3-pyridyl)-6-methoxy-N-methyl-1-(3-thienyl)-4H-indeno[1,2-c]pyrazole-3-carboxamide]",8.09
14,COc1cc2c(cc1-c1cncc(C(N)=O)c1)-c1c(c(C(=O)N3CCOCC3(C)C)nn1-c1ccsc1)OC2 [Compound 2-03],7.66
15,COc1cc2c(cc1-c1cncc(C(N)=O)c1)-c1c(c(C(=O)N3CC4CCC3CN4)nn1-c1cc(Cl)cc(Cl)c1)CC2 (stereo not drawn) [Compound 8-24],6.28
16,"COc1cc2c(cc1-c1cncc(C(N)=O)c1)-c1c(c(C(=O)N3CCN(CC(F)(F)F)CC3(C)C)nn1-c1cc(Cl)cc(Cl)c1)CC2 [Compound 8-58, 5-(1-(3,5-dichlorophenyl)-3-(2,2-dimethyl-4-(2,2,2-trifluoroethyl)piperazine-1-carbonyl)-7-methoxy-4,5-dihydro-1H-benzo[g]indazol-8-yl)nicotinamide]",6.99
17,COc1cc2c(cc1-c1cncc(C(N)=O)c1)-c1c(c(C(=O)N3CNC(=O)C3(C)C)nn1-c1cc(Cl)cc(Cl)c1)CC2 [Compound 8-72],8.05
18,COc1cc(Cl)cc(-n2nc(C(=O)N3CCOCC3(C)C)c3c2-c2cc(-c4cncc(C(N)=O)c4)c(OC)cc2CC3)c1 [Compound 9-20],8.41
19,"COc1cc2c(cc1-c1ccn(C)n1)-c1c(c(C(=O)N(C)C(C)(C)C)nn1-c1ccsc1)C2 [Compound 5-08, N-tert-butyl-6-methoxy-N-methyl-7-(1-methylpyrazol-3-yl)-1-(3-thienyl)-4H-indeno[1,2-c]pyrazole-3-carboxamide]",6.71
20,COc1cc2c(cc1-c1cncc(C(N)=O)c1)-c1c(c(C(=O)N3CC[C@H]4CN(C)C[C@H]43)nn1-c1cc(Cl)cc(Cl)c1)CC2 [Compound 8-30],5.76
21,CC1(C)C(=O)NCCN1C(=O)c1nn(-c2ccccn2)c2c1CCc1ccc(-c3cncc(C(N)=O)c3)cc1-2 [Compound 8-75],4.56
22,"COc1cc(C(N)=O)cc(-c2cc3c(cc2OC)COc2c(C(=O)N(C)C(C)(C)C)nn(-c4cc(Cl)cc(Cl)c4)c2-3)n1 [Compound 11-02, N-tert-butyl-8-(4-carbamoyl-6-methoxy-2-pyridyl)-1-(3,5-dichlorophenyl)-7-methoxy-N-methyl-5H-isochromeno[4,3-c]pyrazole-3-carboxamide]",7.38
23,COc1cc2c(cc1-c1cncc(C(N)=O)c1)-c1c(c(C(=O)N3[C@H](C)COC[C@@H]3C)nn1-c1cc(Cl)cc(Cl)c1)CC2 [Compound 8-49],8.62
24,"COc1cc2c(cc1-c1cncc(C(N)=O)c1)-c1c(c(C(=O)N(C)C(C)(C)C)nn1-c1cc(Cl)cc(Cl)c1)C2 [Compound 5-02, N-tert-butyl-7-(5-carbamoyl-3-pyridyl)-1-(3,5-dichlorophenyl)-6-methoxy-N-methyl-4H-indeno[1,2-c]pyrazole-3-carboxamide]",6.71
25,COc1cc2c(cc1-c1cncc(C(N)=O)c1)-c1c(c(C(=O)N3CC4CC3CN4)nn1-c1cc(Cl)cc(Cl)c1)CC2 (stereo not drawn) [Compound 8-33],6.36
26,"COc1cc2c(cc1-c1ccn(C)n1)-c1c(c(C(=O)N3CCOCC3(C)C)nn1-c1cc(Cl)cc(Cl)c1)CC2 [Compound 6-03, [1-(3,5-dichlorophenyl)-7-methoxy-8-(1-methylpyrazol-3-yl)-4,5-dihydrobenzo[g]indazol-3-yl]-(3,3-dimethylmorpholin-4-yl)methanone]",6.79
27,COc1cc2c(cc1-c1cncc(C(N)=O)c1)-c1c(c(C(=O)NC(C)CO)nn1-c1cc(Cl)cc(Cl)c1)CC2 (stereo not drawn) [Compound 8-54A],6.65
